Data: patent US10961238B2, “Modulators of hedgehog (Hh) signaling pathway” (E-THERAPEUTICS PLC, priority 2016, dated 2021)
pIC50: −log10 of the molar value. Where two headings read alike, the source gives them in different places.

Experiments:
SMO = target: T1, SMO (Homo sapiens, UniProt Q99835); test: Smoothened (SMO) binding fluorescence polarisation assay (BODIPY-cyclopamine competition); conditions: SMO binding FP assay versus C3H10T1/2 cellular assay
T1 construct: expressed in transfected cells; host or cells: HEK293
Procedure: Standard Protocol for Smoothened (SMO) Binding Fluorescence Polarisation Assay.
The assay measures the ability of the test compounds to compete with a fluorescently-labelled version of the known ligand, cyclopamine, for binding to SMO. The fluorescent tag used is BODIPY (boron dipyrromethene).
An aliquot of a membrane preparation from a SMO-over-expressing HEK293 cell line is diluted to protein concentration of 0.117 mg/ml in assay buffer (25 mM HEPES, 2 mM EDTA, 0.05% γ-globulin, 0.01% pluronic acid pH7.4, plus protease Inhibitor cocktail). 8.5 μl of the membrane suspension is added to each well of a black, low volume 384 well microtitre plate.
Test compounds are added in a seven point dilution range to the wells containing the membrane preparation. The final DMSO solvent concentration in the wells is maintained at 0.3%. 6.5 μl of a 6.9 nM BODIPY-cyclopamine solution is added to each of the wells (final assay concentration 3 nM).
The plate is sealed and stored in the dark at room temperature for 24 hours prior to measurement of the fluorescence polarisation signal on a Perkin Elmer Envision multi-label reader.
Table 4 below details the ratio of SMO binding compared to the potency in the C3H10T1/2 cellular assay. The small ratio between SMO binding and potency for vismodegib is considered to be reflective of the fact vismodegib acts mainly through inhibition of the SMO protein. The larger ratios for the compound of the invention are considered to be reflective of alternate actions outside of direct SMO inhibition.

C3H10T1/2 cells = test: C3H assay: differentiation of C3H10T1/2 cells by mSHH, measurement of alkaline phosphatase; assay type: cell-based, mouse; conditions: Mus musculus, C3H 10T1/2
[1] = C3H10T1/2 cells stimulated with mSHH for 72 hours, alkaline phosphatase activity, read-out: IC50 Ranges

T1 sequence (Q99835 28-787): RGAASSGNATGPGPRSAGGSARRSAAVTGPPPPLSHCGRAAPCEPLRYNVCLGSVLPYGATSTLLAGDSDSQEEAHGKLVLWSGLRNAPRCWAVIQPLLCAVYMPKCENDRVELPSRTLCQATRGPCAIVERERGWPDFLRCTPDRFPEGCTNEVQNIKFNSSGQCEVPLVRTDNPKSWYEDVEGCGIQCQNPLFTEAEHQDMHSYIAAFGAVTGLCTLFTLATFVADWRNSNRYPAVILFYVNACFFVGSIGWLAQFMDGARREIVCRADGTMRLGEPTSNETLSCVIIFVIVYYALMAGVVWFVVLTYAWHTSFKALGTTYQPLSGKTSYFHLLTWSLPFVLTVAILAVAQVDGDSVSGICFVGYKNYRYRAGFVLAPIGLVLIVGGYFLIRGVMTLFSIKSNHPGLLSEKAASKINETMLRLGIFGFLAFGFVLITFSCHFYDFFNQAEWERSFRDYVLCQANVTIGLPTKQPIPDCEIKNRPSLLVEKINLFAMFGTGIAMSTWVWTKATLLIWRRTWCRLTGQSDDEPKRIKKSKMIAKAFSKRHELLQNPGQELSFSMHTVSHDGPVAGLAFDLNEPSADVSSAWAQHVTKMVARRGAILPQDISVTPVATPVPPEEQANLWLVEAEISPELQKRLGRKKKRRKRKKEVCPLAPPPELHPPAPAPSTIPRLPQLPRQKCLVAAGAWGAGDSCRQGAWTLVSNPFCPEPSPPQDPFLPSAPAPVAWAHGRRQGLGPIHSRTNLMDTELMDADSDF

| Ratio of potency in SMO binding assay to potency in C3H10T1/2 cellular assay (SMO) | pIC50 (C3H10T1/2 cells; [1]) | pIC50 (C3H10T1/2 cells; reference compounds run in the C3H assay, read-out: mean IC50) | Compound |
| --- | --- | --- | --- |
| >78 | 6.00 to 7.00 | – | COC(=O)c1cnc2[nH]cc(C3CCN(S(=O)(=O)C4CCN(C(=O)OC(C)(C)C)CC4)CC3)c2c1 [Compound 16, methyl 3-[1-[1-[(2-methylpropan-2-yl)oxycarbonyl]piperidin-4-yl]sulfonylpiper-idin-4-yl]-1H-pyrrolo[2,3-b]pyridine-5-carboxylate] |
| 21 | 7.00 to 8.00 | – | CC1(C)COCC(C)(C)N1C(=O)N1CC(S(=O)(=O)N2CCC(c3cnc4occc4c3)CC2)C1 [Compound 34, [3-(4-furo[2,3-b]pyridin-5-ylpiperidin-1-yl)sulfonylaze-tidin-1-yl]-(3,3,5,5-tetramethylmor-pholin-4-yl)methanone] |
| 45 | 7.00 to 8.00 | – | O=C(OCC1CCCO1)N1CC(S(=O)(=O)N2CCC(c3c[nH]c4ncccc34)CC2)C1 (stereo not shown) [Compound 67, (oxolan-2-yl)methyl 3-[4-(1H-pyrrolo [2,3-b]pyridin-3-yl)piperidin-1-yl]sulfonylaze-tidine-1-carboxylate] |
| 22 | 6.00 to 7.00 | – | CC(C)OC(=O)N1CC(S(=O)(=O)N2CCC(c3c[nH]c4ncccc34)CC2)C1 [Compound 97, propan-2-yl 3-[4-(1H-pyrrolo[2,3-b]pyridin-3-yl)piperidin-1-yl]sulfonylaze-tidine-1-carboxylate] |
| 42 | 6.00 to 7.00 | – | CN(C)c1ccc(C2CCN(S(=O)(=O)C3CCN(C(=O)OC(C)(C)C)CC3)CC2)cc1 [Compound 112] |
| 20 | 6.00 to 7.00 | – | COc1cnc2[nH]cc(C3CCN(S(=O)(=O)C4CCN(C(=O)OC(C)(C)C)CC4)CC3)c2c1 [Compound 115, tert-butyl 4-[4-(5-methoxy-1H-pyrrolo[2,3-b]pyridin-3-yl)piperidin-1-yl]sulfonylpiper-idine-1-carboxylate] |
| >55 | 6.00 to 7.00 | – | Cn1cc(-c2cnc3[nH]cc(C4CCN(S(=O)(=O)C5CN(C(=O)OC(C)(C)C)C5)CC4)c3c2)cn1 [Compound 122, tert-butyl 3-[4-[5-(1-methylpyrazol-4-yl)-1H-pyrrolo [2,3-b]pyridin-3-yl]piperidin-1-yl]sulfonylaze-tidine-1-carboxylate] |
| 84 | 7.00 to 8.00 | – | CC(C)(C)OC(=O)N1CC(S(=O)(=O)N2CCC(c3coc4cccnc34)CC2)C1 [Compound 131, tert-Butyl 3-[(4-furo[3,2-b]pyridin-3-yl-1-piperidyl)sulfonyl]azetidine-1-carboxylate] |
| 20 | 7.00 to 8.00 | – | O=C(OC[C@H]1CCCO1)N1CC(S(=O)(=O)N2CCC(c3c[nH]c4ncccc34)CC2)C1 [Compound 162, [(2R)-oxolan-2-yl]methyl 3-[4-(1H-pyrrolo[2,3-b]pyridin-3-yl)piperidin-1-yl]sulfonylaze-tidine-1-carboxylate] |
| 20 | 6.00 to 7.00 | – | CC(C)(C)OC(=O)N1CC(S(=O)(=O)N2CC=C(c3c[nH]c4ncccc34)CC2)C1 [Compound 228, tert-butyl 3-[[4-(1H-pyrrolo[2,3-b]pyridin-3-yl)-3,6-dihydro-2H-pyridin-1-yl]sulfonyl] azetidine-1-carboxylate] |
| – | 7.00 to 8.00 | – | Cc1cc(F)ccc1NC(=O)N1CC(S(=O)(=O)N2CCC(c3c[nH]c4ncccc34)CC2)C1 [Compound 394, N-(4-fluoro-2-methylphenyl)-3-[4-(1H-pyrrolo[2,3-b]pyridin-3-yl)piperidin-1-yl]sulfonylazet idine-1-carboxamide] |
| – | 6.00 to 7.00 | – | CC(C)(O)CC(=O)N1CC(S(=O)(=O)N2CCC(c3coc4cccnc34)CC2)C1 [Compound 398, 1-[3-(4-furo[3,2-b]pyridin-3-ylpiperidin-1-yl)sulfonylaze-tidin-1-yl]-3-hydroxy-3-methylbutan-1-one] |
| – | 6.00 to 7.00 | – | Cc1cc(F)ccc1N(C)C(=O)N1CC(S(=O)(=O)N2CCC(c3coc4cccnc34)CC2)C1 [Compound 399, N-(4-fluoro-2-methyl-phenyl)-3-[(4-furo[3,2-b]pyridin-3-yl-1-piperidyl)sulfonyl]-N-methyl-azetidine-1-carboxamide] |
| – | 6.00 to 7.00 | – | Cc1ccc(F)cc1NC(=O)N1CC(S(=O)(=O)N2CCC(c3ccc(Cl)cc3)CC2)C1 [Compound 400, 3-[4-(4-chlorophenyl)piperidin-1-yl]sulfonyl-N-(5-fluoro-2-methylphenyl) azetidine-1-carboxamide] |
| – | 6.00 to 7.00 | – | O=C(N1CCOCC1)N1CC(S(=O)(=O)N2CCC(c3ccc(Cl)cc3)CC2)C1 [Compound 402, [3-[4-(4-chlorophenyl)piperidin-1-yl]sulfonylaze-tidin-1-yl]-morpholin-4-ylmethanone] |
| – | 7.00 to 8.00 | – | O=C(Nc1c(F)cccc1F)N1CC(S(=O)(=O)N2CCC(c3coc4cccnc34)CC2)C1 [Compound 403, N-(2,6-difluorophenyl)-3-(4-furo[3,2-b]pyridin-3-ylpiperidin-1-yl)sulfonylaze-tidine-1-carboxamide] |
| – | 7.00 to 8.00 | – | CC(C)(C(=O)N1CC(S(=O)(=O)N2CCC(c3coc4cccnc34)CC2)C1)C(F)(F)F [Compound 404, 3,3,3-trifluoro-1-[3-(4-furo[3,2-b]pyridin-3-ylpiperidin-1-yl)sulfonylaze-tidin-1-yl]-2,2-dimethylpropan-1-one] |
| – | 7.00 to 8.00 | – | C[C@](O)(CC(=O)N1CC(S(=O)(=O)N2CCC(c3c[nH]c4ncccc34)CC2)C1)C(F)(F)F [Compound 405, 4,4,4-trifluoro-3-hydroxy-3-methyl-1-[3-[4-(1H-pyrrolo[2,3-b]pyridin-3-yl)piperidin-1-yl]sulfonylaze-tidin-1-yl]butan-1-one] |
| – | 7.00 to 8.00 | – | C[C@](O)(CC(=O)N1CC(S(=O)(=O)N2CCC(c3coc4cccnc34)CC2)C1)C(F)(F)F [Compound 406, 4,4,4-trifluoro-1-[3-(4-furo[3,2-b]pyridin-3-ylpiperidin-1-yl)sulfonylaze-tidin-1-yl]-3-hydroxy-3-methylbutan-1-one] |
| – | 6.00 to 7.00 | – | CN1CCC[C@H]1C(=O)N1CC(S(=O)(=O)N2CCC(c3coc4cccnc34)CC2)C1 [Compound 407, [3-(4-furo[3,2-b]pyridin-3-ylpiperidin-1-yl)sulfonylazetidin-1-yl]-[(2S)-methylpyrroli-din-2-yl]methanone] |
| – | 6.00 to 7.00 | – | CC(C)CC(=O)N1CC(S(=O)(=O)N2CCC(c3coc4cccnc34)CC2)C1 [Compound 408, 1-[3-(4-furo[3,2-b]pyridin-3-ylpiperidin-1-yl)sulfonylazetidin-1-yl]-3-methylbutan-1-one] |
| – | 5.00 to 6.00 | – | Cc1ccccc1C1CCN(S(=O)(=O)C2CN(C(=O)OC(C)(C)C)C2)CC1 [Compound 409, tert-butyl 3-[4-(2-methylphenyl)piperidin-1-yl]sulfonylaze-tidine-1-carboxylate] |
| – | 7.00 to 8.00 | – | CC1(C)COCN1C(=O)N1CC(S(=O)(=O)N2CCC(c3ccc(Cl)cc3)CC2)C1 [Compound 411, [3-[4-(4-chlorophenyl)piperidin-1-yl]-sulfonylaze-tidin-1-yl]-(4,4-dimethyl-1,3-oxazolidin-3-yl)-methanone] |
| – | – | 7.96 | Cc1c(C(=O)Nc2ccc(N3C[C@@H](C)O[C@@H](C)C3)nc2)cccc1-c1ccc(OC(F)(F)F)cc1 [Sonidegib, reference compound] |
